Like-named read-outs stand apart in the source and are kept apart here.
Tests used:
[1] = tested on: IFNγ-induced STAT1 phosphorylation (pSTAT1) in B16F10 cells; assay: B16F10 Phospho-STAT1 HTRF proximal pharmacodynamic (PD) assay; assay type: cell-based, murine; conditions: for EC50: B16-F10, B16F10 cells; for Dihydrobenzofuran or Indoline x-fold>potency cellular: x-fold versus corresponding chromane comparator, B16F10 pSTAT1
Protocol: Example III-3: B16F10 (Murine Melanoma Cells) Phospho-STAT1 HTRF Proximal Pharmacodynamic (PD) Assay
B16F10 cells were grown and maintained in high glucose DMEM (Gibco, Catalog^#11965-092, Dun Laoghaire Co Dublin) supplemented with 10% fetal bovine serum (Gibco, Catalog^#10082-139, Dun Laoghaire Co Dublin). The cells were pelleted and resuspended in high glucose DMEM without phenol red (Gibco, Catalog^#11054-020, Dun Laoghaire Co Dublin), supplemented with 10% fetal bovine serum and plated in a 384 well Corning plate (product^#3765, Corning, NY) at 11,000 cells per well in a volume of 20 μL. The cells were dosed with the compounds of interest using an Echo Liquid Handler (Beckman Coulter, Brea, CA) at 50 μM top dose with 3-fold dilutions down to 0.002679 μM for a 10-point dose response. The plate was incubated for 3 hours at 37° C. and subsequently treated with recombinant mouse IFNγ (R&D Systems, Catalog^#485-MI, Minneapolis, MN; 100 nM final concentration) for 10 minutes at 37° C. to induce STAT1 phosphorylation followed by 3.3 μM staurosporine treatment for 1 hour at 37° C. to terminate phosphorylation. Media was then aspirated and 20 μL of 1× lysis buffer/blocking reagent (Cisbio Phospho-STAT1 kit, part^# 63ADK026PEH, Bedford, MA) was added. The plate was placed on a plate shaker for 30 minutes at room temperature, sealed, and stored at −80° C. until needed. To thaw, the plate was placed on shaker at room temperature until completely thawed while the antibody master mix was made (1:40 Phospho-STAT1 Eu Cryptate antibody, 1:40 Phospho-STAT d2 antibody, with the detection buffer; Cisbio Phospho-STAT1 kit, part^#63ADK026PEH, Bedford, MA). The antibody master mix was then dispensed at 4 μL per well into a 384 ProxiPlate Plus (PerkinElmer, part^#6008289, Waltham, MA) and 16 μL of lysate was added from the Corning plate to the Proxiplate using a VIAFLO 384 (INTEGRA). The plate was incubated for 3 hours at room temperature and read on an EnVision® (Perkin Elmer) plate reader with laser excitation at 335 nm and emission at 665 nm. Dotmatics Studies (Bishop's Stortford, UK) was utilized to generate all dose-response curves and calculate EC50s and are shown in Table 2.

[2] = biological target: His tagged full-length PTPN1 protein (Homo sapiens (Human), UniProt P18031); assay: PTPN1 Mobility Shift Assay (MSA); assay type: biochemical; conditions: enzyme 0.5 nM, substrate 2 μM
Protocol: Example III-2: Mobility Shift Assay (MSA) Used to Determine Potency of PTPN1 Inhibitors
Compound activity was determined using in house His tagged full-length PTPN1 protein (SEQ ID NO: 3) in an in vitro enzymatic reaction. The enzymatic assay used to determine activity is a mobility shift assay using a LabChip EZ Reader by Caliper Life Sciences. The enzymatic reaction was carried out in assay buffer (50 mM HEPES pH 7.5, 1 mM EGTA, 10 mM EDTA, 0.01% Tween® 20, and 2 mM DTT). The compounds were dispensed on a white 384 well ProxiPlate™ (PerkinElmer Cat ^#6008289) plate using a Labcyte Echo® liquid handler at varying concentrations (12 point, 1:3 dilution). The enzyme (at 0.5 nM) was incubated with compound for 10 minutes at room temperature. Thereafter, the substrate (phosphorylated insulin receptor probe sequence: ((OG488)-(NH—CH2—CH2—O—CH2—CH2—O—CH2—CO)-T-R-D-I—(PY)-E-T-D-Y—Y—R—K—K—NH2) (SEQ ID NO: 2) was added at 2 μM to the plates and incubated for another 10 minutes at room temperature. Finally, a quench solution (water and 4-bromo-3-(2-oxo-2-propoxyethoxy)-5-(3-{[1-(phenylmethanesulfonyl)piperidin-4-yl]amino}phenyl)thiophene-2-carboxylic acid) was added to the plates, which were then run on the EZ Reader (excitation 488 nm, emission 530 nm) to measure % conversion (the amount of phosphorylated substrate which was de-phosphorylated by PTPN1). […] The % inhibition was then used to calculate the IC50 values.

[3] = biological target: His tagged PTPN2 (TC45) protein (Homo sapiens (Human), UniProt P17706); assay: PTPN2 Mobility Shift Assay (MSA); assay type: biochemical; conditions: for Dihydrobenzofuran or Indoline x-fold>potency biochemical: x-fold versus corresponding chromane comparator, PTPN2 MSA
Protocol: Example III-1: Mobility Shift Assay (MSA) Used to Determine Potency of PTPN2 Inhibitors
Compound activity was determined using in house His tagged PTPN2 (TC45) protein (SEQ ID NO: 1) in an in vitro enzymatic reaction. The enzymatic assay used to determine activity was a mobility shift assay using a LabChip EZ Reader by Caliper Life Sciences. The enzymatic reaction was carried out in assay buffer (50 mM HEPES pH 7.5, 1 mM EGTA, 10 mM EDTA, 0.01% Tween® 20, and 2 mM DTT). The compounds were dispensed on a white 384 well ProxiPlate™ (PerkinElmer Catalog #6008289) plate using the Labcyte Echo at varying concentrations (12 point, 1:3 dilution). The enzyme (at 0.5 nM) was incubated with compound for 10 minutes at room temperature. Thereafter, the substrate (phosphorylated insulin receptor probe sequence: ((OG488)-(NH—CH2—CH2—O—CH2—CH2—O—CH2—CO)-T-R-D-I—(PY)-E-T-D-Y—Y—R—K—K—NH2) (SEQ ID NO: 2) was added at 2 μM to the plates and incubated for another 10 minutes at room temperature. Finally, a quench solution (water and 4-bromo-3-(2-oxo-2-propoxyethoxy)-5-(3-{[1-(phenylmethanesulfonyl)piperidin-4-yl]amino}phenyl)thiophene-2-carboxylic acid) was added to the plates, which were then run on the EZ Reader (excitation 488 nm, emission 530 nm) to measure % conversion (the amount of phosphorylated substrate which was de-phosphorylated by PTPN2). […] The % inhibition was then used to calculate the IC50 values.

[4] = 3 hours compound, 100 nM mouse IFNγ 10 minutes, read-out: B16F10 IFNγ Induced pSTAT1 EC50
[5] = Mus musculus, Table 3, dihydrobenzofuran or indoline compound (X = O or NH), read-out: pSTAT1 EC50
[6] = Table 3, dihydrobenzofuran or indoline compound (X = O or NH)

His tagged PTPN2 (TC45) protein, sequence (P17706 other isoform, or with tags, fused parts or gaps): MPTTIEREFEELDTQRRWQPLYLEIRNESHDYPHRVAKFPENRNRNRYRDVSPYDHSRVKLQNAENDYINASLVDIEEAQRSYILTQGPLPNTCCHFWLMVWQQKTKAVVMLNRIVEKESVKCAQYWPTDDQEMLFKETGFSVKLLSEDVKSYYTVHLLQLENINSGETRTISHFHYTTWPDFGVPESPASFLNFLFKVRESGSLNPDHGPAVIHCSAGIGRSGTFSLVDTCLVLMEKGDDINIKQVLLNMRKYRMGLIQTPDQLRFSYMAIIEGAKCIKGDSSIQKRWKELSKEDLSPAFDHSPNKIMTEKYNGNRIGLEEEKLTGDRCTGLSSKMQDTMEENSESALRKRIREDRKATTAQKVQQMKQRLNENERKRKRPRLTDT
His tagged full-length PTPN1 protein, sequence (P18031 whole entry): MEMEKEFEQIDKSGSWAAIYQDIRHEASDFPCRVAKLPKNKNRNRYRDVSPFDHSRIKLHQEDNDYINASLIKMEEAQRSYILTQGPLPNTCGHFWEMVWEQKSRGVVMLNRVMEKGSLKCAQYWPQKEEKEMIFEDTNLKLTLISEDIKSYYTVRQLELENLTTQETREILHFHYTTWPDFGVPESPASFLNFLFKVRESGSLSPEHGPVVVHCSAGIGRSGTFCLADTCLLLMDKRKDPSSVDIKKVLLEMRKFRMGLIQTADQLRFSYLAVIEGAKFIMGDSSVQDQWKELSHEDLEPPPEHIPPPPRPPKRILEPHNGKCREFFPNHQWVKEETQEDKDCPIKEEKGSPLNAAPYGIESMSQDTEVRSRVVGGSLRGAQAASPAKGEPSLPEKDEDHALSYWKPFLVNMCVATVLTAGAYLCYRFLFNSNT

## O=C1CN(c2c(O)cc3c(c2F)C[C@H](CNCC2C4CCCC42)O3)S(=O)(=O)N1 (mixture of isomers) [Compound 126, 5-{(2R)-2-[({[(1RS,5SR)-bicyclo[3.1.0]hexan-6-yl]methyl}amino)methyl]-4-fluoro-6-hydroxy-2,3-dihydro-1-benzofuran-5-yl}-1λ^6,2,5-thiadiazolidine-1,1,3-trione]
[1]; [4]
  EC50: 3.67 µM
[1]; [5]
  EC50: 3.67 µM
[1]
  Dihydrobenzofuran or Indoline x-fold>potency cellular: >13.6
[2]
  IC50: 0.01 to 0.1 µM
[3]; [6]
  IC50: 0.00606 µM
[3]; enzyme 0.5 nM, substrate 2 μM
  IC50: < 0.01 µM
[3]
  Dihydrobenzofuran or Indoline x-fold>potency biochemical: 5.3

## CC(C)CNC[C@H]1Cc2c(cc(O)c(N3CC(=O)NS3(=O)=O)c2F)O1 [Compound 100, 5-[(2R)-4-fluoro-6-hydroxy-2-{[(2-methylpropyl)amino]methyl}-2,3-dihydro-1-benzofuran-5-yl]-1λ^6,2,5-thiadiazolidine-1,1,3-trione]
[1]; [4]
  EC50: 0.853 µM
[2]
  IC50: 0.01 to 0.1 µM
[3]; enzyme 0.5 nM, substrate 2 μM
  IC50: < 0.01 µM

## CC(C)CNC[C@@H]1Cc2c(cc(O)c(N3CC(=O)NS3(=O)=O)c2F)O1 [Compound 101, 5-[(2S)-4-fluoro-6-hydroxy-2-{[(2-methylpropyl)amino]methyl}-2,3-dihydro-1-benzofuran-5-yl]-1λ^6,2,5-thiadiazolidine-1,1,3-trione]
[2]
  IC50: > 0.1 µM
[3]; enzyme 0.5 nM, substrate 2 μM
  IC50: > 0.1 µM

## CC(C)CNCC1Cc2c(cc(O)c(N3CC(=O)NS3(=O)=O)c2F)O1 (stereo not shown) [Compound 102, 5-(4-fluoro-6-hydroxy-2-{[(2-methylpropyl)amino]methyl}-2,3-dihydro-1-benzofuran-5-yl)-1λ^6,2,5-thiadiazolidine-1,1,3-trione]
[1]; [4]
  EC50: 3.42 µM
[2]
  IC50: 0.01 to 0.1 µM
[3]; enzyme 0.5 nM, substrate 2 μM
  IC50: 0.01 to 0.1 µM

## O=C1CN(c2c(O)cc3c(c2F)C[C@H](CNCCC2CCCC2)O3)S(=O)(=O)N1 [Compound 103, 5-[(2R)-2-{[(2-cyclopentylethyl)amino]methyl}-4-fluoro-6-hydroxy-2,3-dihydro-1-benzofuran-5-yl]-1λ^6,2,5-thiadiazolidine-1,1,3-trione]
[1]; [4]
  EC50: 1.87 µM
[2]
  IC50: 0.01 to 0.1 µM
[3]; enzyme 0.5 nM, substrate 2 μM
  IC50: < 0.01 µM

## CC(C)(CO)CCNC[C@H]1Cc2c(cc(O)c(N3CC(=O)NS3(=O)=O)c2F)O1 [Compound 104, 5-[(2R)-4-fluoro-6-hydroxy-2-{[(4-hydroxy-3,3-dimethylbutyl)amino]methyl}-2,3-dihydro-1-benzofuran-5-yl]-1λ^6,2,5-thiadiazolidine-1,1,3-trione]
[1]; [4]
  EC50: 5.11 µM
[2]
  IC50: 0.01 to 0.1 µM
[3]; enzyme 0.5 nM, substrate 2 μM
  IC50: 0.01 to 0.1 µM

## CC(C)(O)CCNC[C@H]1Cc2c(cc(O)c(N3CC(=O)NS3(=O)=O)c2F)O1 [Compound 105, 5-[(2R)-4-fluoro-6-hydroxy-2-{[(3-hydroxy-3-methylbutyl)amino]methyl}-2,3-dihydro-1-benzofuran-5-yl]-1λ^6,2,5-thiadiazolidine-1,1,3-trione]
[1]; [4]
  EC50: 2.95 µM
[2]
  IC50: 0.01 to 0.1 µM
[3]; enzyme 0.5 nM, substrate 2 μM
  IC50: 0.01 to 0.1 µM

## O=C1CN(c2c(O)cc3c(c2F)C[C@H](CNCCC2CC(F)(F)C2)O3)S(=O)(=O)N1 [Compound 106, 5-[(2R)-2-({[2-(3,3-difluorocyclobutyl)ethyl]amino}methyl)-4-fluoro-6-hydroxy-2,3-dihydro-1-benzofuran-5-yl]-1λ^6,2,5-thiadiazolidine-1,1,3-trione]
[1]; [4]
  EC50: 1.86 µM
[2]
  IC50: 0.01 to 0.1 µM
[3]; enzyme 0.5 nM, substrate 2 μM
  IC50: < 0.01 µM

## O=C1CN(c2c(O)cc3c(c2F)C[C@H](CNCCCC(F)F)O3)S(=O)(=O)N1 [Compound 107, 5-[(2R)-2-{[(4,4-difluorobutyl)amino]methyl}-4-fluoro-6-hydroxy-2,3-dihydro-1-benzofuran-5-yl]-1λ^6,2,5-thiadiazolidine-1,1,3-trione]
[1]; [4]
  EC50: 1.33 µM
[1]; [5]
  EC50: 1.33 µM
[1]
  Dihydrobenzofuran or Indoline x-fold>potency cellular: 2.7
[2]
  IC50: 0.01 to 0.1 µM
[3]; [6]
  IC50: 0.0133 µM
[3]; enzyme 0.5 nM, substrate 2 μM
  IC50: 0.01 to 0.1 µM
[3]
  Dihydrobenzofuran or Indoline x-fold>potency biochemical: 0.7

## O=C1CN(c2c(O)cc3c(c2F)C[C@H](CNCCCOCC(F)F)O3)S(=O)(=O)N1 [Compound 123, 5-[(2R)-2-({[3-(2,2-difluoroethoxy)propyl]amino}methyl)-4-fluoro-6-hydroxy-2,3-dihydro-1-benzofuran-5-yl]-1λ^6,2,5-thiadiazolidine-1,1,3-trione]
[2]
  IC50: 0.01 to 0.1 µM
[3]; [6]
  IC50: 0.0112 µM
[3]; enzyme 0.5 nM, substrate 2 μM
  IC50: 0.01 to 0.1 µM
[3]
  Dihydrobenzofuran or Indoline x-fold>potency biochemical: 2.1

## CC(C)(C)OC(=O)N1CCC(CNC[C@H]2Cc3c(cc(O)c(N4CC(=O)NS4(=O)=O)c3F)O2)CC1 [Compound 124, tert-butyl 4-[({[(2R)-4-fluoro-6-hydroxy-5-(1,1,4-trioxo-1λ^6,2,5-thiadiazolidin-2-yl)-2,3-dihydro-1-benzofuran-2-yl]methyl}amino)methyl]piperidine-1-carboxylate]
[2]
  IC50: 0.01 to 0.1 µM
[3]; [6]
  IC50: 0.0132 µM
[3]; enzyme 0.5 nM, substrate 2 μM
  IC50: 0.01 to 0.1 µM
[3]
  Dihydrobenzofuran or Indoline x-fold>potency biochemical: 1.1

## CC(C)CNC[C@H]1Cc2c(cc(O)c(N3CC(=O)NS3(=O)=O)c2F)N1C [Compound 156, 5-[(2R)-4-fluoro-6-hydroxy-1-methyl-2-{[(2-methylpropyl)amino]methyl}-2,3-dihydro-1H-indol-5-yl]-1λ^6,2,5-thiadiazolidine-1,1,3-trione]
[2]
  IC50: > 0.1 µM
[3]; enzyme 0.5 nM, substrate 2 μM
  IC50: > 0.1 µM

## O=C1CN(c2c(O)cc3c(c2F)C[C@H](CNCC(O)C(F)F)N3)S(=O)(=O)N1 (stereo partly drawn) [Compound 157, 5-[(2R)-2-{[(3,3-difluoro-2-hydroxypropyl)amino]methyl}-4-fluoro-6-hydroxy-2,3-dihydro-1H-indol-5-yl]-1λ^6,2,5-thiadiazolidine-1,1,3-trione]
[2]
  IC50: > 0.1 µM
[3]; enzyme 0.5 nM, substrate 2 μM
  IC50: > 0.1 µM

— US20250019374A1, “PROTEIN TYROSINE PHOSPHATASE INHIBITORS AND METHODS OF USE THEREOF” (Calico Life Sciences LLC, priority 2021, published 2025)
